Literature values in US20230346889A9, “TREATMENT OF ACUTE HEART FAILURE” (AnaCardio R&D AB, priority 2019, published 2023).
Non-standard residues stand in square brackets, D forms with d. Residues, ends and D or L forms follow the SMILES beside them. dTrp(2-Me) = Cc1[nH]c2ccccc2c1C[C@@H](N)C(=O)O; d2Nal = N[C@H](Cc1ccc2ccccc2c1)C(=O)O

Assays:
[1] = test system: patients with heart failure; details: cited from earlier work; for association with mortality: observational ADHERE Registry
[2] = test system: dogs with acute myocardial infarction; details: US2004014671A1; cited from earlier work

SMILES | improvement of CO [2] | association with mortality [1] | further results
C[C@@H]1CC(=O)NN=C1c1ccc(NN=C(C#N)C#N)cc1 [Levosimendan] |  |  | hypotension and arrhythmias vs. placebo ([1]; REVIVE I and II): increased hypotension and arrhythmias vs. placebo; effect on CO and blood pressure ([1]; human, in vivo): increases CO but also causes hypotension
C[C@H](NC(=O)[C@@H](Cc1ccc2ccccc2c1)NC(=O)[C@@H](C)N)C(=O)N[C@@H](Cc1c[nH]c2ccccc12)C(=O)N[C@H](Cc1ccccc1)C(=O)N[C@@H](CCCCN)C(N)=O [Pralmorelin] (H-[dA][d2Nal]AW[dF]K-NH2) | improved |  | 
Cc1[nH]c(=O)c(C#N)cc1-c1ccncc1 [milrinone] |  | independently associated with increased mortality | adverse outcomes vs. placebo ([1]; randomized OPTIME CHF): caused significantly more hypotension and atrial arrhythmias and non-significantly more deaths
CC(CCc1ccc(O)cc1)NCCc1ccc(O)c(O)c1 (stereo not shown) [dobutamine] |  | independently associated with increased mortality | 
Cc1[nH]c2ccccc2c1C[C@@H](NC(=O)[C@@H](N)Cc1cnc[nH]1)C(=O)N[C@@H](C)C(=O)N[C@@H](Cc1c[nH]c2ccccc12)C(=O)N[C@H](Cc1ccccc1)C(=O)N[C@@H](CCCCN)C(N)=O [hexarelin] (H-H[dTrp(2-Me)]AW[dF]K-NH2) | not |  | 
